Source: patent publication US20250074901A1, “NOVEL HETEROARYL COMPOUNDS” (ICAGEN, LLC, priority 2021, published 2025)

Target: T1, Kv7.2 (Homo sapiens, UniProt O43526)
T1 construct: expressed in transfected cells
Experiment: Activation of Kv7.2 (in vitro assay, concentration response curve)
Assay type: cell-based
Details: for Emax: Kv7.2 activation max %; for EC50: activation of Kv7.2
Experimental: The term “EC50” in this application is defined as: the agonistic effect of a compound can be determined by testing the compound in an in vitro assay as described herein, whereby the effect of the compound is measured across a range of compound concentrations. The resulting data is plotted as a concentration response curve, which typically follows a sigmoidal function, whereby the concentration of the compound is plotted on the x axis and the response (agonistic effect) is plotted on the y axis. The term “EC50” is the “half maximal effective concentration” and denotes the concentration of a particular compound required to obtain 50% of the maximum response (Emax) which is observed for that compound in the given in vitro assay.

Row | Compound | Emax [%] | EC50 [µM]
1 | O=C(NCc1ccnc(OC(F)F)c1)N[C@@H]1C[C@H]2C[C@@H]1C(F)(F)C2 (racemic) [Example 236, 1-[[2-(difluoromethoxy)pyridin-4-yl]methyl]-3-[rac-(1R,2S,4S)-6,6-difluoro-2-bicyclo[2.2.1]heptanyl]urea] | 87 | 0.46
2 | O=C(NCc1ccnc(OC(F)F)c1)N[C@@H]1CC[C@@H]1C(F)(F)F (racemic) [Example 255, 1-[[2-(difluoromethoxy)pyridin-4-yl]methyl]-3-[rac-(1R,2S)-2-(trifluoromethyl)cyclobutyl]urea] | 78 | 2.57
3 | O=C(NCc1ccnc(CC(F)(F)F)c1)N[C@H]1CCC[C@@H](C(F)(F)F)C1 (racemic) [Example 276, 1-[rac-(1R,3S)-3-(trifluoromethyl)cyclohexyl]-3-[[2-(2,2,2-trifluoroethyl)pyridin-4-yl]methyl]urea] | 62 | 0.54
4 | O=C(NCc1ccnc(OC(F)F)c1)N[C@@H]1CC[C@@H](C(F)(F)F)C1 (single isomer, unassigned) [Example 206] | 75 | 0.49
5 | O=C(NCc1ccnc(OC(F)F)c1)N[C@H]1CC[C@H](C(F)(F)F)C1 (single isomer, unassigned) [Example 207] | 58 | 0.23
6 | O=C(Nc1cccc(Cl)c1)NC(CO)c1ccnc(OC(F)F)c1 (single isomer, unassigned) [Example 263] | 73 | 0.31
7 | O=C(NC(CO)c1ccnc(OC(F)F)c1)N[C@@H]1COc2ccccc2C1 (stereo in doubt) [Example 278, rel-1-[1-[2-(difluoromethoxy)pyridin-4-yl]-2-hydroxyethyl]-3-[(3S)-3,4-dihydro-2H-chromen-3-yl]urea] | 52 | 0.43
8 | O=C(NCc1ccnc(-n2cccn2)c1)N[C@@H]1CCOc2ccccc21 [Example 1, 1-[(4R)-3,4-dihydro-2H-chromen-4-yl]-3-[(2-pyrazol-1-ylpyridin-4-yl)methyl]urea] | 54 | 2.42
9 | O=C(NCc1ccnc(-n2cccn2)c1)NC1CCCC1 [Example 2, 1-cyclopentyl-3-[(2-pyrazol-1-ylpyridin-4-yl)methyl]urea] | 74 | 4.4
10 | O=C(NCc1ccnc(-n2cccn2)c1)Nc1cccc(Cl)c1 [Example 4, 1-(3-chlorophenyl)-3-[(2-pyrazol-1-ylpyridin-4-yl)methyl]urea] | 60 | 0.43
11 | CC1CC(C)(C)CCC1NC(=O)NCc1ccnc(C#N)c1 (centres unmarked) [Example 5, 1-[(2-cyanopyridin-4-yl)methyl]-3-(2,4,4-trimethylcyclohexyl)urea] | 60 | 3.69
12 | O=C(NCc1ccnc(-n2cccn2)c1)NC12CC(C(F)(F)F)(C1)C2 [Example 6, 1-[(2-pyrazol-1-ylpyridin-4-yl)methyl]-3-[3-(trifluoromethyl)-1-bicyclo[1.1.1]pentanyl]urea] | 58 | 1.14
13 | O=C(NCc1ccnc(-n2ccnc2)c1)NC1CCCC(C2CC2)C1 (centres unmarked) [Example 8, 1-(3-cyclopropylcyclohexyl)-3-[(2-imidazol-1-ylpyridin-4-yl)methyl]urea] | 52 | 1.52
14 | CC1CC(C)(C)CCC1NC(=O)NCc1ccnc(-n2ccnc2)c1 (centres unmarked) [Example 9, 1-[(2-imidazol-1-ylpyridin-4-yl)methyl]-3-(2,4,4-trimethylcyclohexyl)urea] | 53 | 0.7
15 | O=C(NCCC1=CCCCC1)NCc1ccnc(-n2cccn2)c1 [Example 10, 1-[2-(cyclohexen-1-yl)ethyl]-3-[(2-pyrazol-1-ylpyridin-4-yl)methyl]urea] | 54 | 1.39
16 | O=C(NCc1ccnc(OC(F)F)c1)NCC1CCC1 [Example 13, 1-(cyclobutylmethyl)-3-[[2-(difluoromethoxy)pyridin-4-yl]methyl]urea] | 56 | 0.33
17 | O=C(NCc1ccnc(-n2cccn2)c1)N[C@H]1C[C@@H]2CC[C@H]1C2 [Example 15, 1-[(1S,2S,4R)-2-bicyclo[2.2.1]heptanyl]-3-[(2-pyrazol-1-ylpyridin-4-yl)methyl]urea] | 78 | 0.38
18 | O=C(NCc1ccnc(-n2cccn2)c1)N[C@@H]1C[C@H]2CC[C@@H]1C2 [Example 16, 1-[(1R,2R,4S)-2-bicyclo[2.2.1]heptanyl]-3-[(2-pyrazol-1-ylpyridin-4-yl)methyl]urea] | 73 | 0.39
19 | CC(NC(=O)NCc1ccnc(OC(F)F)c1)C1CCC1 (centres unmarked) [Example 17, 1-(1-cyclobutylethyl)-3-[[2-(difluoromethoxy)pyridin-4-yl]methyl]urea] | 51 | 0.51
20 | CC1(C)CCC(NC(=O)NCc2ccnc(OC3COC3)c2)CC1 [Example 18, 1-(4,4-dimethylcyclohexyl)-3-[[2-(oxetan-3-yloxy)pyridin-4-yl]methyl]urea] | 71 | 0.27

Row | Compound | Emax [%] | EC50 [µM]
21 | O=C(NCc1ccnc(OC(F)F)c1)NC1CCCC1 [Example 20, 1-cyclopentyl-3-[[2-(difluoromethoxy)pyridin-4-yl]methyl]urea] | 57 | 0.39
22 | O=C(NCc1ccnc(OCC(F)(F)F)c1)NCC1CCC1 [Example 21, 1-(cyclobutylmethyl)-3-[[2-(2,2,2-trifluoroethoxy)pyridin-4-yl]methyl]urea] | 52 | 0.19
23 | O=C(NCc1ccnc(OC(F)F)c1)Nc1cccc(Cl)c1 [Example 22, 1-(3-chlorophenyl)-3-[[2-(difluoromethoxy)pyridin-4-yl]methyl]urea] | 41 | 0.03
24 | O=C(NCc1ccnc(OC(F)F)c1)N[C@@H]1CCOc2ccccc21 [Example 23, 1-[[2-(difluoromethoxy)pyridin-4-yl]methyl]-3-[(4R)-3,4-dihydro-2H-chromen-4-yl]urea] | 52 | 0.13
25 | CC(NC(=O)NCc1ccnc(OC(F)F)c1)C1CC2CCC1C2 (centres unmarked) [Example 24, 1-[1-(2-bicyclo[2.2.1]heptanyl)ethyl]-3-[[2-(difluoromethoxy)pyridin-4-yl]methyl]urea] | 76 | 0.02
26 | CC1CCCC(C)C1NC(=O)NCc1ccnc(OC(F)F)c1 (centres unmarked) [Example 25, 1-[[2-(difluoromethoxy)pyridin-4-yl]methyl]-3-(2,6-dimethylcyclohexyl)urea] | 75 | 0.03
27 | CC(C)(C)CNC(=O)NCc1ccnc(OC(F)F)c1 [Example 29, 1-[[2-(difluoromethoxy)pyridin-4-yl]methyl]-3-(2,2-dimethylpropyl)urea] | 63 | 0.57
28 | O=C(NCc1ccnc(OC(F)F)c1)NCC12CC(C1)C2 [Example 31, 1-(1-bicyclo[1.1.1]pentanylmethyl)-3-[[2-(difluoromethoxy)pyridin-4-yl]methyl]urea] | 57 | 0.42
29 | O=C(NCc1ccnc(OC(F)F)c1)NCC12CC(F)(C1)C2 [Example 32, 1-[[2-(difluoromethoxy)pyridin-4-yl]methyl]-3-[(3-fluoro-1-bicyclo[1.1.1]pentanyl)methyl]urea] | 42 | 0.83
30 | CC1(C)CCC(NC(=O)NCc2ccnc(-n3ccnc3)c2)CC1 [Example 37, 1-(4,4-dimethylcyclohexyl)-3-[(2-imidazol-1-ylpyridin-4-yl)methyl]urea] | 59 | 1.31
31 | COC1(CNC(=O)NCc2ccnc(OC(F)F)c2)CCC1 [Example 38, 1-[[2-(difluoromethoxy)pyridin-4-yl]methyl]-3-[(1-methoxycyclobutyl)methyl]urea] | 73 | 3.73
32 | CC(C)(F)CNC(=O)NCc1ccnc(OC(F)F)c1 [Example 39, 1-[[2-(difluoromethoxy)pyridin-4-yl]methyl]-3-(2-fluoro-2-methylpropyl)urea] | 55 | 1.95
33 | O=C(NCc1ccnc(OC(F)F)c1)NCC1(F)CCC1 [Example 40, 1-[[2-(difluoromethoxy)pyridin-4-yl]methyl]-3-[(1-fluorocyclobutyl)methyl]urea] | 58 | 0.64
34 | O=C(NCc1ccnc(-n2cnc(C(F)(F)F)c2)c1)NCC1CCC1 [Example 41, 1-(cyclobutylmethyl)-3-[[2-[4-(trifluoromethyl)imidazol-1-yl]pyridin-4-yl]methyl]urea] | 40 | 1.13
35 | O=C(NCc1ccnc(OC(F)F)c1)N[C@H]1C[C@H](C(F)(F)F)C1 [Example 42, 1-[[2-(difluoromethoxy)pyridin-4-yl]methyl]-3-[(1r,3r)-3-(trifluoromethyl)cyclobutyl]urea] | 58 | 0.07
36 | O=C(NCc1ccnc(OCC(F)(F)F)c1)NC1CCCC1 [Example 43, 1-cyclopentyl-3-[[2-(2,2,2-trifluoroethoxy)pyridin-4-yl]methyl]urea] | 75 | 0.14
37 | CC(C)(C)CC1(NC(=O)NCc2ccnc(OC(F)F)c2)CC1 [Example 44, 1-[[2-(difluoromethoxy)pyridin-4-yl]methyl]-3-[1-(2,2-dimethylpropyl)cyclopropyl]urea] | 75 | 0.48
38 | O=C(NCc1ccnc(OC(F)F)c1)NC1CCC1 [Example 45, 1-cyclobutyl-3-[[2-(difluoromethoxy)pyridin-4-yl]methyl]urea] | 62 | 1.23
39 | O=C(NCc1ccnc(OC(F)F)c1)NCC1CCCC1 [Example 46, 1-(cyclopentylmethyl)-3-[[2-(difluoromethoxy)pyridin-4-yl]methyl]urea] | 64 | 0.21
40 | O=C(NCc1ccnc(OC(F)F)c1)NC12CC(C1)C2 [Example 47, 1-(1-bicyclo[1.1.1]pentanyl)-3-[[2-(difluoromethoxy)pyridin-4-yl]methyl]urea] | 65 | 1.51
